Oligonucleotides are written 5' to 3', each unit as a sugar letter and its base; * is a phosphorothioate linkage, no mark a phosphodiester; rarer units and linkages stand in square brackets, end groups in braces. Plain capitals give the bases only. d = 2'-deoxy (DNA); {P} = phosphate
Assays:
[1] = tested on: human melanoma line MM-AN; assay: FACS analysis of MM-AN melanoma cells; type: cell-based; details: 40 μM
Description: Proteins were analyzed by denaturing polyacrylamide gel electrophoresis (SDS-PAGE), using 10% polyacrylamide, and western blot analysis was done with an E2F1-specific monoclonal antibody (KH95 Santa Cruz Biotechnology, Santa Cruz, Calif.), and p73 analyzed using a polyclonal antibody (AB-4 from Oncogene Research Products, San Diego, Calif.). […] In order to determine the contribution of p73 to cell death, MM-AN melanoma cells were stably transfected with a dominant negative p73 (p73DN) (Irwin et al., Nature 402:645–648) construct or empty vector as a control (p73^DN-containing vector a gift from Dr. William Kaelin, Dana Farber Institute, Boston) and paired cultures were supplemented with 40 μM 11mer-1 or diluent alone, then harvested at 72 hours for FACS analysis. […] The above-mentioned differentiation markers are expressed in normal human melanocytes. It appears that the loss of expression of these antigens is a mechanism that a subset of human melanomas uses to escape immunosurveillance defenses. Several peptides from these antigens are targets of tumor infiltrating cytotoxic lymphocytes. Encouraging results have been obtained in vivo with different vaccination strategies using antigenic peptides from the above antigens.

[2] = tested on: Normal human neonatal keratinocyte cells; assay: Cell yield of normal keratinocytes; type: cell-based; details: 100 μM
Description: Normal human neonatal keratinocyte cells were cultured as described above in Example 1 for SCC12F cells, and treated with either 100 μM T2 or diluent as a control. Cells were harvested for cell counts. The cell yield in cultures treated with T2 was reduced by 63% compared to that of paired control cultures after three days (FIG. 5).

SDI 1 mRNA = SDI 1 mRNA in H1299 cells with or without p53 expression vector; type: cell-based, human; details: 100 μM, 24 hours
Description: Preconfluent cultures of H1299 cells were transfected with an expression vector containing the wild type human p53 cDNA under the control of the human cytomegalovirus promoter/enhancer (Dr. Bert Vogelstein, Johns Hopkins Oncology Center). Control transfections were performed using the vector from which the p53 cDNA was removed. Transfections were carried out using the Lipofectin Reagent Kit (GIBCO/BRL). One day after transfection, cells were collected for Western blot analysis using 20 μg total protein as described (Yaar, M. et al., J. Clin. Invest. 94:1550–1562 (1994)). p53 was detected using mAb 421, anti-mouse Ig linked to horseradish peroxidase (Amersham, Arlington Heights, Ill.) and an ECL-kit (Amersham), following the directions of the manufacturer. At the time of protein collection, duplicate cultures of H1299 cells transfected with the p53 expression vector (designated “p53”) or control vector (“Ctrl”) were given either diluent (DMEM) or 100 μM pTpT. After 24 hours, the cells were collected, processed for RNA isolation and Northern blot analysis with an SDI 1 cDNA probe. The autoradiograph was scanned using a Macintosh IIsi computer and Macintosh One Scanner, and the brightness and contrast were adjusted to display differences in autoradiographic signals maximally. […]

contact hypersensitivity = assay: Contact hypersensitivity to DNFB (ear swelling); type: in vivo, C57B16 mice; details: 30 μl of 100 μM BID×5d topical to abdominal skin before sensitization
Description: C57B16 mice were subjected to the following treatment prior to sensitization with the allergen DNFB, by topical administration to abdominal skin; no pretreatment, UVB irradiation (200 J/m^2/dx4d), pTpT, pApA, or vehicle alone (30 μl of 100 μM BID×5d).

[3] = tested on: Primary newborn fibroblasts; assay: Protection of fibroblasts against H2O2; type: cell-based; details: for cell yields higher compared to diluent pre-treated control: 10 μM 3 days, within 72 hours
Description: Primary newborn fibroblasts were treated for 3 days with 10 μM pTpT or diluent as control and then treated with 5×10^−5 or 5×10^−4 M H2O2. Within 72 hours of H2O2 exposure, cell yields of pTpT pre-treated cultures were 45±1% and 139±5% higher, respectively, compared to diluent pre-treated control samples. 72 hours after exposure of the […] H2O2 dose, only 9.6±2.4% of the diluent pre-treated cells survived.

Substance | cell cycle [1] | apoptosis rate of cells expressing p73^DN ([1]; 72 hours) | apoptosis (sub-G0/G1 DNA content) ([1]; by 72 hours) | cell yield reduced compared to paired control cultures ([2]; after three days) [%] | number of cells ([2]; three days (control: one population doubling)) | level of SDI 1 transcript (SDI 1 mRNA; H1299 transfected with wild-type p53 expression vector) | level of SDI 1 transcript (SDI 1 mRNA; p53-null H1299 cells) | ear swelling responses to DNFB challenge (contact hypersensitivity) | cell yields higher compared to diluent pre-treated control ([3]; 5×10^−4 M H2O2) [%] | cell yields higher compared to diluent pre-treated control ([3]; 5×10^−5 M H2O2) [%] | increase of cell survival ([3]; 5×10^−4 M H2O2) | protection of cell survival ([3]; low H2O2 dose)
pGTTAGGGTTAG (DNA {P}-dGdTdTdAdGdGdGdTdTdAdG) [SEQ ID NO: 5] | first entered an S-phase arrest | at half the rate of control cells | a substantial portion of the cells were undergoing apoptosis |  |  |  |  |  |  |  |  | 
thymidine dinucleotide [pTpT] |  |  |  | 63 | remained the same | inducible by addition of pTpT | not affected by addition of pTpT | 0.9±0.3 | 139±5 | 45±1 | 2–9 fold | complete protection

From patent publication US7033829B2, “Method to inhibit cell growth using oligonucleotides” (Trustees of Boston University, priority 2000, dated 2006)
